Reference: ChEMBL document CHEMBL3994575, “Helixconstraints and amino acid substitution in GLP-1 increase cAMP and insulin secretion but not beta-arrestin 2 signaling” (Eur J Med Chem, 2017)
Positions of bridges follow the written chain, without caps; N, C: chain ends. Residues, ends and D or L forms follow the SMILES beside them.

Experiments:
[1] = molecular target: T1, Glucagon-like peptide 1 receptor (Homo sapiens, UniProt P43220); test: Displacement of [125I]-GLP (7 to 36 residues) from human GLP1R expressed in CHO cell membranes incubated for 30 mins measured after 10 hrs by scintillation proximity assay
T1 sequence (P43220 whole entry, the tested form may be a part): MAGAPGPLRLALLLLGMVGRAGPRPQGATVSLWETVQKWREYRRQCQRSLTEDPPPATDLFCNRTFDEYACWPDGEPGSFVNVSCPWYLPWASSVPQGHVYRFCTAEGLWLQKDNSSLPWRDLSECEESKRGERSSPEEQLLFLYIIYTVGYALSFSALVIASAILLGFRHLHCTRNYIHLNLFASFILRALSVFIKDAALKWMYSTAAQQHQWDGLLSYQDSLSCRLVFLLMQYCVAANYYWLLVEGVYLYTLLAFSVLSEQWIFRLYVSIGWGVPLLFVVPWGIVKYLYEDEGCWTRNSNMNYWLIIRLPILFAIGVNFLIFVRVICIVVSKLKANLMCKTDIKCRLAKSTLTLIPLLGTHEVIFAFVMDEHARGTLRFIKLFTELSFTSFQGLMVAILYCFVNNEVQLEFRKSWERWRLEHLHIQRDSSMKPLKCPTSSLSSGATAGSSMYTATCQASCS

[2] = molecular target: T1, Glucagon-like peptide 1 receptor; test: Agonist activity at human GLP1R expressed in CHO cells assessed as cAMP accumulation incubated for 30 mins by LANCE assay; format: functional, cell-based
[3] = molecular target: T1, Glucagon-like peptide 1 receptor; test: Agonist activity at human GLP1R expressed in CHOK1 cells assessed as induction of beta-galactosidase-tagged beta-arrestin2 recruitment incubated for 90 mins by PathHunter enzyme complementation assay; format: cell-based

| Compound | Ki [1] [nM] | EC50 [2] [nM] | EC50 [3] [nM] |
| --- | --- | --- | --- |
| CC[C@H](C)[C@H](NC(=O)[C@H](Cc1ccccc1)NC(=O)[C@H](CCC(=O)O)NC(=O)[C@H](CCCCN)NC(=O)[C@H](C)NC(=O)[C@H](C)NC(=O)[C@H](CCC(N)=O)NC(=O)[C@@H]1CCC(=O)NCCCC[C@H](NC(=O)[C@H](CO)NC(=O)[C@H](Cc2ccc(O)cc2)NC(=O)[C@H](CC(=O)O)NC(=O)[C@H](CO)NC(=O)[C@@H](NC(=O)[C@H](Cc2ccccc2)NC(=O)[C@@H](NC(=O)CNC(=O)[C@H](CCC(=O)O)NC(=O)[C@H](C)NC(=O)[C@@H](N)Cc2cnc[nH]2)[C@@H](C)O)[C@@H](C)O)C(=O)N[C@@H](Cc2ccc(O)cc2)C(=O)N[C@@H](CC(C)C)C(=O)N[C@@H](CCC(=O)O)C(=O)N1)C(=O)N[C@H]1CCCCNC(=O)C[C@@H](C(=O)NCC(=O)N[C@@H](CCCNC(=N)N)C(=O)NCC(N)=O)NC(=O)[C@H](C(C)C)NC(=O)[C@H](CC(C)C)NC(=O)[C@H](Cc2c[nH]c3ccccc23)NC1=O (H-HAEGTFTSDYSKYLEEQAAKEFIKWLVDGRG-NH2; lactam 12-16, 24-28) | 0.82 | 0.009 | 8.8 |
| CC[C@H](C)[C@H](NC(=O)[C@H](Cc1ccccc1)NC(=O)[C@H](CCC(=O)O)NC(=O)[C@H](CCCCN)NC(=O)[C@H](C)NC(=O)[C@H](C)NC(=O)[C@H](CCC(N)=O)NC(=O)CNC(=O)[C@H](CCC(=O)O)NC(=O)[C@H](CC(C)C)NC(=O)[C@H](Cc1ccc(O)cc1)NC(=O)[C@H](CO)NC(=O)[C@H](CO)NC(=O)[C@H](Cc1ccc(O)cc1)NC(=O)[C@H](CC(=O)O)NC(=O)[C@H](CO)NC(=O)[C@@H](NC(=O)[C@H](Cc1ccccc1)NC(=O)[C@@H](NC(=O)CNC(=O)[C@H](CCC(=O)O)NC(=O)[C@H](C)NC(=O)[C@@H](N)Cc1cnc[nH]1)[C@@H](C)O)[C@@H](C)O)C(=O)N[C@H]1CCCCNC(=O)C[C@@H](C(=O)NCC(=O)N[C@@H](CCCNC(=N)N)C(=O)NCC(N)=O)NC(=O)[C@H](C(C)C)NC(=O)[C@H](CC(C)C)NC(=O)[C@H](Cc2c[nH]c3ccccc23)NC1=O (H-HAEGTFTSDYSSYLEGQAAKEFIKWLVDGRG-NH2; lactam 24-28) | 0.49 | 0.023 | 3.4 |
| CC[C@H](C)[C@H](NC(=O)[C@H](Cc1ccccc1)NC(=O)[C@H](CCC(=O)O)NC(=O)[C@H](CCCCN)NC(=O)[C@H](C)NC(=O)[C@H](C)NC(=O)[C@H](CCC(N)=O)NC(=O)[C@@H]1CC(=O)NCCCC[C@H](NC(=O)[C@H](CO)NC(=O)[C@@H](NC(=O)[C@H](CC(=O)O)NC(=O)[C@H](CO)NC(=O)[C@@H](NC(=O)[C@H](Cc2ccccc2)NC(=O)[C@@H](NC(=O)CNC(=O)[C@H](CCC(=O)O)NC(=O)[C@H](C)NC(=O)[C@@H](N)Cc2cnc[nH]2)[C@@H](C)O)[C@@H](C)O)C(C)C)C(=O)N[C@@H](Cc2ccc(O)cc2)C(=O)N[C@@H](CC(C)C)C(=O)N[C@@H](CCC(=O)O)C(=O)N1)C(=O)N[C@H]1CCCCNC(=O)C[C@@H](C(=O)NCC(=O)N[C@@H](CCCNC(=N)N)C(=O)NCC(N)=O)NC(=O)[C@H](C(C)C)NC(=O)[C@H](CC(C)C)NC(=O)[C@H](Cc2c[nH]c3ccccc23)NC1=O (H-HAEGTFTSDVSKYLEDQAAKEFIKWLVDGRG-NH2; lactam 12-16, 24-28) | 0.94 | 0.013 | 6.7 |
| CC[C@H](C)[C@H](NC(=O)[C@H](Cc1ccccc1)NC(=O)[C@H](CCC(=O)O)NC(=O)[C@H](CCCCN)NC(=O)[C@H](C)NC(=O)[C@H](C)NC(=O)[C@H](CCC(N)=O)NC(=O)[C@@H]1CCCN1C(=O)[C@H](CCC(=O)O)NC(=O)[C@H](CC(C)C)NC(=O)[C@H](Cc1ccc(O)cc1)NC(=O)[C@H](CO)NC(=O)[C@H](CO)NC(=O)[C@@H](NC(=O)[C@H](CC(=O)O)NC(=O)[C@H](CO)NC(=O)[C@@H](NC(=O)[C@H](Cc1ccccc1)NC(=O)[C@@H](NC(=O)CNC(=O)[C@H](CCC(=O)O)NC(=O)[C@H](C)NC(=O)[C@@H](N)Cc1cnc[nH]1)[C@@H](C)O)[C@@H](C)O)C(C)C)C(=O)N[C@H]1CCCCNC(=O)C[C@@H](C(=O)NCC(=O)N[C@@H](CCCNC(=N)N)C(=O)NCC(N)=O)NC(=O)[C@H](C(C)C)NC(=O)[C@H](CC(C)C)NC(=O)[C@H](Cc2c[nH]c3ccccc23)NC1=O (H-HAEGTFTSDVSSYLEPQAAKEFIKWLVDGRG-NH2; lactam 24-28) | 18 | 0.35 | 33 |
| CC[C@H](C)[C@H](NC(=O)[C@H](Cc1ccccc1)NC(=O)[C@H](CCC(=O)O)NC(=O)[C@H](CCCCN)NC(=O)[C@H](C)NC(=O)[C@H](C)NC(=O)[C@H](CCC(N)=O)NC(=O)CNC(=O)[C@H](CCC(=O)O)NC(=O)[C@H](CC(C)C)NC(=O)[C@H](Cc1ccc(O)cc1)NC(=O)[C@H](CO)NC(=O)[C@H](CO)NC(=O)[C@@H](NC(=O)[C@H](CC(=O)O)NC(=O)[C@H](CO)NC(=O)[C@@H](NC(=O)[C@H](Cc1ccccc1)NC(=O)[C@@H]1CSC(=O)CN[C@@H](Cc2cnc[nH]2)C(=O)N[C@@H](C)C(=O)N[C@@H](CCC(=O)O)C(=O)NCC(=O)N1)[C@@H](C)O)C(C)C)C(=O)N[C@@H](C)C(=O)N[C@@H](Cc1c[nH]c2ccccc12)C(=O)N[C@@H](CC(C)C)C(=O)N[C@H](C(=O)N[C@@H](CCCCN)C(=O)NCC(=O)N[C@@H](CCCNC(=N)N)C(=O)NCC(N)=O)C(C)C | > 50 | > 10000 | > 10000 |
| CC[C@H](C)[C@H](NC(=O)[C@H](Cc1ccccc1)NC(=O)[C@H](CCC(=O)O)NC(=O)[C@H](CCCCN)NC(=O)[C@H](C)NC(=O)[C@H](C)NC(=O)[C@H](CCC(N)=O)NC(=O)CNC(=O)[C@H](CCC(=O)O)NC(=O)[C@H](CC(C)C)NC(=O)[C@H](Cc1ccc(O)cc1)NC(=O)[C@H](CO)NC(=O)[C@H](CO)NC(=O)[C@@H](NC(=O)[C@H](CC(=O)O)NC(=O)[C@H](CO)NC(=O)[C@@H](NC(=O)[C@H](Cc1ccccc1)NC(=O)[C@@H](NC(=O)CNC(=O)[C@@H]1CSCC(=O)N[C@@H](Cc2cnc[nH]2)C(=O)N[C@@H](C)C(=O)N1)[C@@H](C)O)[C@@H](C)O)C(C)C)C(=O)N[C@@H](C)C(=O)N[C@@H](Cc1c[nH]c2ccccc12)C(=O)N[C@@H](CC(C)C)C(=O)N[C@H](C(=O)N[C@@H](CCCCN)C(=O)NCC(=O)N[C@@H](CCCNC(=N)N)C(=O)NCC(N)=O)C(C)C |  | 300 | > 10000 |
| CC[C@H](C)[C@H](NC(=O)[C@H](Cc1ccccc1)NC(=O)[C@H](CCC(=O)O)NC(=O)[C@H](CCCCN)NC(=O)[C@H](C)NC(=O)[C@H](C)NC(=O)[C@H](CCC(N)=O)NC(=O)CNC(=O)[C@H](CCC(=O)O)NC(=O)[C@@H]1CC(=O)NCCCC[C@H](NC(=O)[C@H](CC(=O)O)NC(=O)[C@H](CO)NC(=O)[C@@H](NC(=O)[C@H](Cc2ccccc2)NC(=O)[C@@H](NC(=O)CNC(=O)[C@H](CCC(=O)O)NC(=O)[C@H](C)NC(=O)[C@@H](N)Cc2cnc[nH]2)[C@@H](C)O)[C@@H](C)O)C(=O)N[C@@H](CO)C(=O)N[C@@H](CO)C(=O)N[C@@H](Cc2ccc(O)cc2)C(=O)N1)C(=O)N[C@H]1CCCCNC(=O)C[C@@H](C(=O)NCC(=O)N[C@@H](CCCNC(=N)N)C(=O)NCC(N)=O)NC(=O)[C@H](C(C)C)NC(=O)[C@H](CC(C)C)NC(=O)[C@H](Cc2c[nH]c3ccccc23)NC1=O (H-HAEGTFTSDKSSYDEGQAAKEFIKWLVDGRG-NH2; lactam 10-14, 24-28) | 1.4 | 0.021 | 12 |
| CC[C@H](C)[C@H](NC(=O)[C@H](Cc1ccccc1)NC(=O)[C@H](CCC(=O)O)NC(=O)[C@H](CCCCN)NC(=O)[C@H](C)NC(=O)[C@H](C)NC(=O)[C@H](CCC(N)=O)NC(=O)[C@H](C)NC(=O)[C@H](CCC(=O)O)NC(=O)[C@H](CC(C)C)NC(=O)[C@H](Cc1ccc(O)cc1)NC(=O)[C@H](CO)NC(=O)[C@H](CO)NC(=O)[C@@H](NC(=O)[C@H](CC(=O)O)NC(=O)[C@H](CO)NC(=O)[C@@H](NC(=O)[C@H](Cc1ccccc1)NC(=O)[C@@H](NC(=O)CNC(=O)[C@H](CCC(=O)O)NC(=O)[C@H](C)NC(=O)[C@@H](N)Cc1cnc[nH]1)[C@@H](C)O)[C@@H](C)O)C(C)C)C(=O)N[C@H]1CCCCNC(=O)C[C@@H](C(=O)NCC(=O)N[C@@H](CCCNC(=N)N)C(=O)NCC(N)=O)NC(=O)[C@H](C(C)C)NC(=O)[C@H](CC(C)C)NC(=O)[C@H](Cc2c[nH]c3ccccc23)NC1=O (H-HAEGTFTSDVSSYLEAQAAKEFIKWLVDGRG-NH2; lactam 24-28) | 1.7 | 0.02 | 11 |
| CC[C@H](C)[C@H](NC(=O)[C@H](Cc1ccccc1)NC(=O)[C@H](CCC(=O)O)NC(=O)[C@H](CCCCN)NC(=O)[C@H](C)NC(=O)[C@H](C)NC(=O)[C@H](CCC(N)=O)NC(=O)[C@@H](NC(=O)[C@H](CCC(=O)O)NC(=O)[C@H](CC(C)C)NC(=O)[C@H](Cc1ccc(O)cc1)NC(=O)[C@H](CO)NC(=O)[C@H](CO)NC(=O)[C@@H](NC(=O)[C@H](CC(=O)O)NC(=O)[C@H](CO)NC(=O)[C@@H](NC(=O)[C@H](Cc1ccccc1)NC(=O)[C@@H](NC(=O)CNC(=O)[C@H](CCC(=O)O)NC(=O)[C@H](C)NC(=O)[C@@H](N)Cc1cnc[nH]1)[C@@H](C)O)[C@@H](C)O)C(C)C)C(C)C)C(=O)N[C@H]1CCCCNC(=O)C[C@@H](C(=O)NCC(=O)N[C@@H](CCCNC(=N)N)C(=O)NCC(N)=O)NC(=O)[C@H](C(C)C)NC(=O)[C@H](CC(C)C)NC(=O)[C@H](Cc2c[nH]c3ccccc23)NC1=O (H-HAEGTFTSDVSSYLEVQAAKEFIKWLVDGRG-NH2; lactam 24-28) | 1.5 | 0.1 | 9 |
| CC[C@H](C)[C@H](NC(=O)[C@H](Cc1ccccc1)NC(=O)[C@H](CCC(=O)O)NC(=O)[C@H](CCCCN)NC(=O)[C@H](C)NC(=O)[C@H](C)NC(=O)[C@H](CCC(N)=O)NC(=O)[C@@H]1CCC(=O)NCCCC[C@H](NC(=O)[C@H](CO)NC(=O)[C@@H](NC(=O)[C@H](CC(=O)O)NC(=O)[C@H](CO)NC(=O)[C@@H](NC(=O)[C@H](Cc2ccccc2)NC(=O)[C@@H](NC(=O)CNC(=O)[C@H](CCC(=O)O)NC(=O)[C@H](C)NC(=O)[C@@H](N)Cc2cnc[nH]2)[C@@H](C)O)[C@@H](C)O)C(C)C)C(=O)N[C@@H](Cc2ccc(O)cc2)C(=O)N[C@@H](CC(C)C)C(=O)N[C@@H](CCC(=O)O)C(=O)N1)C(=O)N[C@H]1CCCCNC(=O)C[C@@H](C(=O)NCC(=O)N[C@@H](CCCNC(=N)N)C(=O)NCC(N)=O)NC(=O)[C@H](C(C)C)NC(=O)[C@H](CC(C)C)NC(=O)[C@H](Cc2c[nH]c3ccccc23)NC1=O (H-HAEGTFTSDVSKYLEEQAAKEFIKWLVDGRG-NH2; lactam 12-16, 24-28) |  | 0.05 |  |
